# Data taken from patent US8003668B2, “Amino-substituted 8-N-benzimidazoles and methods for their use in blood sugar disorders” (Sanofi-Aventis, priority 2005, dated 2011).
# Biological target: T1, DPP-IV from porcine kidneys (Sus scrofa, UniProt P22411)
# T1 construct: DPP-IV from porcine kidneys (Sigma, Munich); purchased Sigma, Munich; host or cells: porcine kidney (tissue-derived enzyme)
# Test: Measurement of the DPP-IV activity (fluorimetric, H-Ala-Pro-AFC substrate)
# Type: biochemical
# Conditions: inhibitor at 30 μm; H-Ala-Pro-AFC 15 μm; DPP-IV 1 mU/ml; Tris/HCl pH 7.4; room temperature
# Protocol: The efficacy of the compounds was tested as follows: • Measurement of the DPP-IV Activity: • Material: • DPP-IV from porcine kidneys (Sigma, Munich) • H-Ala-Pro-AFC (Bachem, Weil am Rhein) • Test conditions: • DPP-IV (1 mU/ml, end concentration) • H-Ala-Pro-AFC (15 μm end concentration) in Tris/HCl (40 mM, pH 7.4), total volume 0.2 ml
# The reaction was performed at room temperature for different periods (typically 10 minutes) and stopped at the end of the reaction by adding 20 μl of ZnCl2 (1 M). The conversion of H-Ala-Pro-AFC was determined fluorimetrically by measuring the emission at 535 nm on excitation at 405 nm. In the case of addition of inhibitors, the buffer volume added was adjusted such that a total volume of the test mixture of 200 μl was maintained.
# % inhibition at a fixed concentration was calculated as follows: (1−enzyme activityinhibited reaction/enzyme activityuninhibited reaction)×100
# IC50 values for inhibitors were determined by varying the inhibitor concentrations at the given substrate concentration of 15 μM. Ki and Km values were determined by corresponding variation of substrate and inhibitor concentration as described (Dixon, M. and Webb, E.C.(1979) Enzymes, third edition, pp. 47-206, Academic Press). […]
# T1 sequence (P22411 whole entry): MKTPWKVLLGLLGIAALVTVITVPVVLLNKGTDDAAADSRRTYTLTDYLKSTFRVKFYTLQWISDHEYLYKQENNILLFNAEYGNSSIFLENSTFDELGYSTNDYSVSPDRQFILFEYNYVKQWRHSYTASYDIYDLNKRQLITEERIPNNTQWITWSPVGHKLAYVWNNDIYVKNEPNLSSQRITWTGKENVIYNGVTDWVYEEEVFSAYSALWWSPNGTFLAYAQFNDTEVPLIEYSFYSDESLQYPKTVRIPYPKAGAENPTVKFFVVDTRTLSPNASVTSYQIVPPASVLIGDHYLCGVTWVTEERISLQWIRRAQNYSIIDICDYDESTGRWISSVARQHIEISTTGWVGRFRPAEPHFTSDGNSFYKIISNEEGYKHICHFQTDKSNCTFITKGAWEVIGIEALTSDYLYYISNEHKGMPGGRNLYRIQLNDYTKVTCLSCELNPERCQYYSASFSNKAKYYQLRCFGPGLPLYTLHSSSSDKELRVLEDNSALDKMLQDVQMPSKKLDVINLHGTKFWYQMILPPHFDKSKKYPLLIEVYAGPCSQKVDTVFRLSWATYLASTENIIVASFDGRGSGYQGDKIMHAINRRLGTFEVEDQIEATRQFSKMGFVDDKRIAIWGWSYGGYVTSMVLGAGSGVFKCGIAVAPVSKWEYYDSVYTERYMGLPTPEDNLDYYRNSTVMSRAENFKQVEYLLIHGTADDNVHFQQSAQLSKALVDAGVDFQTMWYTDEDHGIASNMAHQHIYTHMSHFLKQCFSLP
smiles,measurement,value
"CC(C)=CCn1c(N2CCC[C@@H](N)C2)nc2ccc(NS(=O)(=O)c3ccccc3)cc21.O=C(O)C(F)(F)F [Example 1, R-N-[2-(3-R-Aminopiperidin-1-yl)-1-(3-methylbut-2-enyl)-1H-benzimidazol-6-yl]-benzenesulfonamide trifluoroacetic acid salt]",% inhibition at 30 μm,56%
